In patent US20240199683A1, “ANDROGEN RECEPTOR MODULATORS” (priority 2021, published 2024):

Assays:
human AR [1] = target: T1, human AR (Homo sapiens, UniProt P10275); assay: human AR antagonist assay (Indigo Biosciences); assay type: cell-based
T1 construct: purchased Indigo Biosciences
T1 sequence (P10275 1-920): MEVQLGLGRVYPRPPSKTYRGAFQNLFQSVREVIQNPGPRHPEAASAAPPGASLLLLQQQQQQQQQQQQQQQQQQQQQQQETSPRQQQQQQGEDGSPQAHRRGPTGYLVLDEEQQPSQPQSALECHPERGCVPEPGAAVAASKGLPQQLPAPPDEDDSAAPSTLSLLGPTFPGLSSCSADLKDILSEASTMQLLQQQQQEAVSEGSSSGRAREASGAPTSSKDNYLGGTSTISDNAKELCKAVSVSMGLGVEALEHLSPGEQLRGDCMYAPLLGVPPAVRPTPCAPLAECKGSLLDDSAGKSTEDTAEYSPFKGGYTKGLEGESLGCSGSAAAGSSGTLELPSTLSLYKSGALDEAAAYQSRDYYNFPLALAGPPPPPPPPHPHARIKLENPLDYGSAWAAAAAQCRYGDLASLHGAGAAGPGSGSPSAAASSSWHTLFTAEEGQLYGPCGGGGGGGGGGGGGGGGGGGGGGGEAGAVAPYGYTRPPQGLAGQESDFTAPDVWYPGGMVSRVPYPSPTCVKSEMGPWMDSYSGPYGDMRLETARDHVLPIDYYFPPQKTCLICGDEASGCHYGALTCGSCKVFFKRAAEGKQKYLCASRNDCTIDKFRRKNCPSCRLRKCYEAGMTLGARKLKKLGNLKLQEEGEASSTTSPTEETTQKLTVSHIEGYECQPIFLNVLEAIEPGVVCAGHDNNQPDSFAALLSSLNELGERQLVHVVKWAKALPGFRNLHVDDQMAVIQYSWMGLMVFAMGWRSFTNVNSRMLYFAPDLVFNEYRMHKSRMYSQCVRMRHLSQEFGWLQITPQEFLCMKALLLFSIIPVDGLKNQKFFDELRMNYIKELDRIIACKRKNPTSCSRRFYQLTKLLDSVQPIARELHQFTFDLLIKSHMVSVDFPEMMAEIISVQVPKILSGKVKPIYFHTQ
Description: (§1) The activity of a compound can be determined using various known methods. For example, AR assays can be used. Such AR assays include binding assays using, for example, cells transfected with the human androgen receptor. Several cell based model systems that allow sensitive detection and monitoring of steroids or other compounds with AR bioactivity are known. Most cell based AR reporter models use transgenic gene constructs that include an androgen response element (ARE) that controls reporter gene (e.g., lucifersrase) expression. For example, a human AR Reporter Assay System is commercially available from Indigo Biosciecnes. The principle application of such an assay product is to quantify functional activities, either agonist or antagonist, that a compound may exert against the human androgen receptor. […] In addition, the anti-proliferative activity of a compound can be determined using various known methods, including in vitro and in vivo antiproliferative assays using cancer cell lines such as a prostate cancer cell line.
(§2) The activity of certain compounds were tested in a human AR agonist assay and a human AR antagonist assay (Indigo Biosciences).

androgen receptor = target: T2, androgen receptor (Homo sapiens, UniProt P10275); assay: Ki of Table A (method not described; AR binding assays mentioned generally)
T2 sequence (P10275 1-920): T1 sequence (P10275 1-920)
Description: as §1

human AR [2] = target: T1, human AR; assay: human AR agonist assay (Indigo Biosciences); assay type: cell-based
Description: as §1, §2

[3] = Table A, values match the human AR antagonist assay

SMILES | HillSlope (human AR [1]; Table 4, antagonist mode) | IC50 (human AR [1]; [3]) | Ki (androgen receptor) | IC50 (human AR [1]; Table 4, antagonist mode) | EC50 (human AR [2])
C[C@]12CCC(=O)C=C1CCC1=C2CC[C@]2(C)C[C@H](O)[C@@H]3C[C@@]132 [Compound 201] | 1.375 | 0.218 µM | 1.4 µM | – | –
C[C@]12CCC3=C(CC[C@@H]4CC(=O)CC[C@]34C)[C@@]13C[C@H]3[C@@H](O)C2 [Compound 203] | 1.202 | 1.18 µM | – | 1.18 µM | –
C[C@]12CC[C@@]3(C)C(=C1C[C@@H](O)C2)CC[C@H]1CC(=O)CC[C@@H]13 [Compound 106] | – | 1.8 µM | – | – | –
C[C@]12CC[C@@]3(C)C(=C1C[C@H](O)C2)CC[C@H]1CC(=O)CC[C@@H]13 [Compound 109] | – | 6.8 µM | – | – | –
C[C@]12CCC3=C(CC[C@H]4CC(=O)CC[C@]34C)[C@@]13C[C@H]3[C@@H](O)C2 [Compound 202, (2S,2aR,3aR,5aS,9aS,11aR)-2-hydroxy-9a, 11a-dimethyl-1,2a,3,4,5a,6,8,9,9a,10,11,11a-dodecahydro-2H-cyclopropa[1,5]cyclopenta[1,2-a]phenanthren-7(5H)-one] | 1.360 | 0.061 µM | 0.837 µM | 0.0605 µM | –
C[C@]12CC[C@@]3(C)C(=C1C[C@H](O)C2)CCC1=CC(=O)CC[C@@H]13 [Compound 103, (9R,10S,13R,16R)-16-hydroxy-9,13-dimethyl-1,2,6,7,9,10,11,12,13,15,16,17-dodecahydro-3H-cyclopenta[a]phenanthren-3-one] | – | – | – | – | 8950 µM
CC(C)(O)C(=O)Nc1ccc([N+](=O)[O-])c(C(F)(F)F)c1 [hydroxyflutamide, reference compound] | 1.282 | – | – | – | –
